Assays:
[1] = Cytotoxicity against human CNS cancer cells assessed as cellular growth at 10 uM after 48 hrs by SRB assay relative to control; type: functional, Cancer cell lines
[2] = Cytotoxicity against human leukemia cells assessed as cellular growth at 10 uM after 48 hrs by SRB assay relative to control; type: functional, Leukemia cell
[3] = Cytotoxicity against human renal cancer cells assessed as cellular growth at 10 uM after 48 hrs by SRB assay relative to control; type: functional, Cancer cell lines
[4] = Cytotoxicity against human prostate cancer cells assessed as cellular growth at 10 uM after 48 hrs by SRB assay relative to control; type: functional, Cancer cell lines
[5] = Cytotoxicity against human colon cancer cells assessed as cellular growth at 10 uM after 48 hrs by SRB assay relative to control; type: functional, Cancer cell lines
[6] = Cytotoxicity against human non-small cell lung cancer cells assessed as cellular growth at 10 uM after 48 hrs by SRB assay relative to control; type: functional, Cancer cell lines
[7] = Cytotoxicity against human melanoma cells assessed as cellular growth at 10 uM after 48 hrs by SRB assay relative to control; type: functional, Melanoma cell
HT-29 [8] = experiment: Cytotoxicity against human HT-29 cells assessed as cellular growth at 1 uM after 48 hrs by SRB assay relative to control; type: functional
PC-3 [9] = experiment: Cytotoxicity against human PC3 cells assessed as cellular growth at 100 uM after 48 hrs by SRB assay relative to control; type: functional
HT-29 [10] = experiment: Cytotoxicity against human HT-29 cells assessed as cellular growth at 100 uM after 48 hrs by SRB assay relative to control; type: functional
HT-29 [11] = experiment: Cytotoxicity against human HT-29 cells after 48 hrs by SRB assay; type: functional; details: HT-29, 48 h
PC-3 [12] = experiment: Cytotoxicity against human PC3 cells assessed as cellular growth at 1 uM after 48 hrs by SRB assay relative to control; type: functional
HT-29 [13] = experiment: Cytotoxicity against human HT-29 cells assessed as cellular growth at 0.1 uM after 48 hrs by SRB assay relative to control; type: functional
PC-3 [14] = experiment: Cytotoxicity against human PC3 cells assessed as cellular growth at 0.1 uM after 48 hrs by SRB assay relative to control; type: functional
HCC 2998 [15] = experiment: Cytotoxicity against human HCC2998 cells assessed as cellular growth at 0.1 uM after 48 hrs by SRB assay relative to control; type: functional
SW-620 = experiment: Cytotoxicity against human SW620 cells assessed as cellular growth at 1 uM after 48 hrs by SRB assay relative to control; type: functional
RPMI-8226 [16] = experiment: Cytotoxicity against human RPMI8226 cells after 48 hrs by SRB assay; type: functional; details: RPMI-8226, 48 h
HCC 2998 [17] = experiment: Cytotoxicity against human HCC2998 cells after 48 hrs by SRB assay; type: functional; details: HCC 2998, 48 h
RPMI-8226 [18] = experiment: Cytotoxicity against human RPMI8226 cells assessed as cellular growth at 0.01 uM after 48 hrs by SRB assay relative to control; type: functional
RPMI-8226 [19] = experiment: Cytotoxicity against human RPMI8226 cells assessed as cellular growth at 1 uM after 48 hrs by SRB assay relative to control; type: functional
CAKI-1 [20] = experiment: Cytotoxicity against human Caki1 cells assessed as cellular growth at 1 uM after 48 hrs by SRB assay relative to control; type: functional
HCC 2998 [21] = experiment: Cytotoxicity against human HCC2998 cells assessed as cellular growth at 1 uM after 48 hrs by SRB assay relative to control; type: functional
MOLT-4 [22] = experiment: Cytotoxicity against human MOLT4 cells after 48 hrs by SRB assay; type: functional; details: MOLT-4, 48 h
RPMI-8226 [23] = experiment: Cytotoxicity against human RPMI8226 cells assessed as cellular growth at 0.1 uM after 48 hrs by SRB assay relative to control; type: functional
CAKI-1 [24] = experiment: Cytotoxicity against human Caki1 cells assessed as cellular growth at 100 uM after 48 hrs by SRB assay relative to control; type: functional
CAKI-1 [25] = experiment: Cytotoxicity against human Caki1 cells assessed as cellular growth at 0.01 uM after 48 hrs by SRB assay relative to control; type: functional
RPMI-8226 [26] = experiment: Cytotoxicity against human RPMI8226 cells assessed as cellular growth at 100 uM after 48 hrs by SRB assay relative to control; type: functional
CAKI-1 [27] = experiment: Cytotoxicity against human Caki1 cells assessed as cellular growth at 0.1 uM after 48 hrs by SRB assay relative to control; type: functional
MOLT-4 [28] = experiment: Cytotoxicity against human MOLT4 cells assessed as cellular growth at 1 uM after 48 hrs by SRB assay relative to control; type: functional
MOLT-4 [29] = experiment: Cytotoxicity against human MOLT4 cells assessed as cellular growth at 0.01 uM after 48 hrs by SRB assay relative to control; type: functional
[30] = read-out: LC50 (the source's name)
[31] = read-out: pLC50 (the source's name) (converted)

O=C(O)CCCn1c2c(sc3ccccc32)c(=O)n2nnc(-c3ccccc3)c12
Activity [1]: 88% | Activity [2]: 102% | Activity [3]: 75% | Activity [4]: 92% | Activity [5]: 90% | Activity [6]: 85% | Activity [7]: 95%

O=C(CCCn1c2c(sc3ccccc32)c(=O)n2nnc(-c3ccccc3)c12)NCCc1c[nH]cn1
Activity (HT-29 [8]): 43% | Activity (PC-3 [9]): -51% | Activity (HT-29 [10]): -100% | GI50 (HT-29 [11]; read-out: GI50): 0.674 µM | CC50 (HT-29 [11]; [30]): 4.55 µM | TGI (HT-29 [11]; read-out: TGI): 2.01 µM | GI50 (HT-29 [11]; read-out: pGI50 (converted)): 0.676 µM | CC50 (HT-29 [11]; [31]): 4.57 µM | TGI (HT-29 [11]; read-out: pTGI (converted)): 2 µM | Activity (PC-3 [12]): 33% | Activity (HT-29 [13]): 84% | Activity (PC-3 [14]): 40%

CN1CCN(CCCn2c3c(sc4ncccc43)c(=O)n3nnc(-c4ccccc4)c23)CC1
Activity (HCC 2998 [15]): 99% | Activity (SW-620): 83% | GI50 (RPMI-8226 [16]; read-out: GI50): 1.81 µM | CC50 (RPMI-8226 [16]; [30]): > 100 µM | TGI (RPMI-8226 [16]; read-out: TGI): 4.33 µM | GI50 (RPMI-8226 [16]; read-out: pGI50 (converted)): 1.82 µM | CC50 (RPMI-8226 [16]; read-out: pLC50 (converted)): > 100 µM | TGI (RPMI-8226 [16]; read-out: pTGI (converted)): 4.37 µM | GI50 (HCC 2998 [17]; read-out: GI50): 1.88 µM | CC50 (HCC 2998 [17]; [30]): 6.39 µM | TGI (HCC 2998 [17]; read-out: TGI): 3.47 µM | GI50 (HCC 2998 [17]; read-out: pGI50 (converted)): 1.86 µM | CC50 (HCC 2998 [17]; [31]): 6.46 µM | TGI (HCC 2998 [17]; read-out: pTGI (converted)): 3.47 µM | Activity (RPMI-8226 [18]): 110% | Activity (RPMI-8226 [19]): 84% | Activity (CAKI-1 [20]): 85% | Activity (HCC 2998 [21]): 102% | GI50 (MOLT-4 [22]; read-out: GI50): 1.98 µM | CC50 (MOLT-4 [22]; [30]): 11.5 µM | TGI (MOLT-4 [22]; read-out: TGI): 4.45 µM | GI50 (MOLT-4 [22]; read-out: pGI50 (converted)): 2 µM | CC50 (MOLT-4 [22]; [31]): 11.5 µM | TGI (MOLT-4 [22]; read-out: pTGI (converted)): 4.47 µM | Activity (RPMI-8226 [23]): 100% | Activity (CAKI-1 [24]): -90% | Activity (CAKI-1 [25]): 97% | Activity (RPMI-8226 [26]): -46% | Activity (CAKI-1 [27]): 86% | Activity (MOLT-4 [28]): 92% | Activity (MOLT-4 [29]): 99%

Source: ChEMBL document CHEMBL2401728, “An unexpected Dimroth rearrangement leading to annelated thieno[3,2-d][1,2,3]triazolo[1,5-a]pyrimidines with potent antitumor activity” (Eur J Med Chem, 2013)
